Test results from publication PMC5811991 (Biochemistry, 2008).

Biological target: GDP-perosamine synthase (Caulobacter vibrioides, UniProt Q9A9H3)
Experiment: HPLC assay of substrate decrease
Type: biochemical
Conditions: substrate inhibition, competitive versus glutamate (ping-pong, Eq. 1); 100 μM PLP, 20 mM HEPES pH 7.5, 110 mM NaCl, 10 mM MgCl2, room temperature

Sequence of GDP-perosamine synthase (Q9A9H3 whole entry): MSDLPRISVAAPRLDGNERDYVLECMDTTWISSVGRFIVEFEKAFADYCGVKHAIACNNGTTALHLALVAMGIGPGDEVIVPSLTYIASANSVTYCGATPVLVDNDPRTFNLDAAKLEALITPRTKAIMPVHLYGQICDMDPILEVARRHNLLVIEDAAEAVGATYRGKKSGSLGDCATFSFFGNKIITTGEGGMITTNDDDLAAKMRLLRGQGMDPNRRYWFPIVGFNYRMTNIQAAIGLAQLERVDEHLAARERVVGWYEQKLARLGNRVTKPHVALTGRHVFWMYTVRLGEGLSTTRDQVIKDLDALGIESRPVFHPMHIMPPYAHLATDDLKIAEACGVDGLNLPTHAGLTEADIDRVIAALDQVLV

With `C[C@H]1O[C@H](OP(=O)(O)OP(=O)(O)OC[C@H]2O[C@@H](n3cnc4c(=O)[nH]c(N)nc43)[C@H](O)[C@@H]2O)[C@@H](O)[C@@H](O)C1=O` [GDP-4-keto-6-deoxymannose] the “Ki sugar” value was 89 ± 34 µM.
